Like-named read-outs stand apart in the source and are kept apart here.
Assays:
Mouse STC-1 cells = assay: STC-1 GLP-1 assay (GLP-1 secretion); type: cell-based
Outline: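 Secreted active GLP-1 was measured by HTRF after overnight room-temperature incubation of supernatant with the conjugates. Supernatants came from a 2 h, 37° C. compound exposure (12-point half-log series) in HBSS with DPP-IV and protease inhibitors and 0.1% fatty acid free BSA. STC-1 cells had been seeded two days earlier in stripped-serum DMEM; EC50 reported.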

[1] = Pharmacokinetic profile in mice after oral gavage; type: in vivo, mouse; details: mouse; fasted male Hilltop mice, 10 mg/kg oral gavage, plasma; read-out: Cmax
Outline: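 Plasma exposure (Cmax, AUC) by non-compartmental analysis of LC-MS/MS data, orbital blood taken at 0, 0.25, 0.5, 1, 2 and 4 h, each value averaging three mice. Dosing: 10 mg/kg oral gavage to overnight-fasted male Hilltop mice (8 weeks), vehicle PEG400/CMC/Tween-80.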

[2] = Mouse STC-1 cells, GLP-1 secretion, 2 h, read-out: Mouse STC-1 HTRF GLP-1 Activity (EC50)

SMILES | EC50 (Mouse STC-1 cells; [2]) [nM] | Cmax [1] [ng/mL] | EC50 (Mouse STC-1 cells; Mus musculus, STC-1, read-out: EC50 concentration of GLP-1 stimulation in STC-1 cells) [nM]
N#Cc1ccc(CCNC(=O)[C@@H]2CCN2c2cc(N3CCC(CCCC(=O)NC[C@@H](O)[C@H](O)[C@@H](O)[C@@H](O)CO)CC3)nc(C(F)(F)F)n2)cc1 [Compound 260, (S)—N-(4-cyanophenethyl)-1-(6-(4-(4-oxo-4-(((2R,3S,4S,5S)-2,3,4,5,6-pentahydroxyhexyl)amino)butyl)piperidin-1-yl)-2-(trifluoromethyl)pyrimidin-4-yl)azetidine-2-carboxamide] | 100 to 999 | 3.2 | 
N#Cc1ccc(CCNC(=O)[C@@H]2CCN2c2cc(N3CCC(CCCC(=O)NC[C@@H](O)CO)CC3)nc(C(F)(F)F)n2)cc1 [Compound 261, (S)-N-(4-cyanophenethyl)-1-(6-(4-(4-(((R)-2,3-dihydroxypropyl)amino)-4-oxobutyl)piperidin-1-yl)-2-(trifluoromethyl)pyrimidin-4-yl)azetidine-2-carboxamide] | 100 to 999 | 48 | 
N#Cc1ccc(CCNC(=O)[C@@H]2CCN2c2cc(N3CCC(CCNC(=O)NCCC(=O)O)CC3)nc(C(F)(F)F)n2)cc1 [Compound 268, (S)-3-(3-(2-(1-(6-(2-((4-cyanophenethyl)carbamoyl)azetidin-1-yl)-2-(trifluoromethyl)pyrimidin-4-yl)piperidin-4-yl)ethyl)ureido)propanoic acid] | < 100 | 7.7 | ~55
N#Cc1ccc(CCNC(=O)[C@@H]2CCN2c2cc(N3CCC(CCNC(=O)NCCS(N)(=O)=O)CC3)nc(C(F)(F)F)n2)cc1 [Compound 269, (S)—N-(4-cyanophenethyl)-1-(6-(4-(2-(3-(2-sulfamoylethyl)ureido)ethyl)piperidin-1-yl)-2-(trifluoromethyl)pyrimidin-4-yl)azetidine-2-carboxamide] | < 100 | 3.2 | 
N#Cc1ccc(CCNC(=O)[C@@H]2CCN2c2cc(N3CCC(CCNC(=O)NCS(=O)(=O)O)CC3)nc(C(F)(F)F)n2)cc1 [Compound 270, (S)-(3-(2-(1-(6-(2-((4-cyanophenethyl)carbamoyl)azetidin-1-yl)-2-(trifluoromethyl)pyrimidin-4-yl)piperidin-4-yl)ethyl)ureido)-methanesulfonic acid] | < 100 | 5.4 | 
N#Cc1ccc(CCNC(=O)[C@@H]2CCN2c2cc(N3CCC(CCNC(=O)NCCS(=O)(=O)O)CC3)nc(C(F)(F)F)n2)cc1 [Compound 271, (S)-2-(3-(2-(1-(6-(2-((4-cyanophenethyl)carbamoyl)azetidin-1-yl)-2-(trifluoromethyl)pyrimidin-4-yl)piperidin-4-yl)ethyl)ureido)-ethanesulfonic acid] | < 100 | < 1 | 
N[C@@H](CS(=O)(=O)O)C(=O)NCCC1CCN(c2cc(N3CC[C@H]3C(=O)NCCc3ccc(C(F)(F)F)cc3)nc(C(F)(F)F)n2)CC1 [Compound 278, (R)-2-amino-3-oxo-3-((2-(1-(2-(trifluoromethyl)-6-((S)-2-((4-(trifluoromethyl)-phenethyl)carbamoyl)azetidin-1-yl)pyrimidin-4-yl)piperidin-4-yl)ethyl)amino)-propane-1-sulfonic acid] | < 100 | 3.7 | 
N#Cc1ccc(CCNC(=O)[C@@H]2CCN2c2cc(N3CCC(CCCC(=O)NCCNC(=N)N)CC3)nc(C(F)(F)F)n2)cc1 [Compound 282, (S)—N-(4-cyanophenethyl)-1-(6-(4-(4-((2-guanidinoethyl)amino)-4-oxobutyl)piperidin-1-yl)-2-(trifluoromethyl)pyrimidin-4-yl)azetidine-2-carboxamide] | 100 to 999 | 4.2 | 
N#Cc1ccc(CCNC(=O)[C@@H]2CCN2c2cc(N3CCC(CCCC(=O)NCCCCNC(=N)N)CC3)nc(C(F)(F)F)n2)cc1 [Compound 283, (S)-N-(4-cyanophenethyl)-1-(6-(4-(4-((4-guanidinobutyl)amino)-4-oxobutyl)piperidin-1-yl)-2-(trifluoromethyl)pyrimidin-4-yl)azetidine-2-carboxamide] | 100 to 999 | 2.7 | 
N#Cc1ccc(CCNC(=O)[C@@H]2CCN2c2cc(N3CCC(CCCC(=O)NCCOCCNC(=N)N)CC3)nc(C(F)(F)F)n2)cc1 [Compound 284, (S)-N-(4-cyanophenethyl)-1-(6-(4-(4-((2-(2-guanidinoethoxy)-ethyl)amino)-4-oxobutyl)piperidin-1-yl)-2-(trifluoromethyl)pyrimidin-4-yl)azetidine-2-carboxamide] | 100 to 999 | 13 | 
N#Cc1ccc(CCNC(=O)[C@@H]2CCN2c2cc(N3CCC(CCNC(=N)N)CC3)nc(C(F)(F)F)n2)cc1 [Compound 285, (S)-N-(4-cyanophenethyl)-1-(6-(4-(2-guanidinoethyl)piperidin-1-yl)-2-(trifluoromethyl)pyrimidin-4-yl)azetidine-2-carboxamide] | < 100 | 0.9 | 
N#Cc1ccc(CCNC(=O)[C@@H]2CCN2c2cc(N3CCC(CCNC(=O)NCCNC(=N)N)CC3)nc(C(F)(F)F)n2)cc1 [Compound 286, (S)-N-(4-cyanophenethyl)-1-(6-(4-(2-(3-(2-guanidinoethyl)-ureido)ethyl)piperidin-1-yl)-2-(trifluoromethyl)pyrimidin-4-yl)azetidine-2-carboxamide] | 100 to 999 | 5.2 | 
N#Cc1ccc(CCNC(=O)[C@@H]2CCN2c2cc(N3CCC(CCNC(=O)NCCOCCNC(=N)N)CC3)nc(C(F)(F)F)n2)cc1 [Compound 287, (S)-1-(6-(4-(1-amino-1-imino-9-oxo-5-oxa-2,8,10-triazadodecan-12-yl)piperidin-1-yl)-2-(trifluoromethyl)pyrimidin-4-yl)-N-(4-cyanophenethyl)azetidine-2-carboxamid] | < 100 | 5 | 
CS(=O)(=O)NCCOCCNC(=O)NCCC1CCN(c2cc(N3CC[C@H]3C(=O)NCCc3ccc(C#N)cc3)nc(C(F)(F)F)n2)CC1 [Compound 292, (S)-N-(4-cyanophenethyl)-1-(6-(4-(2-(3-(2-(2-(methylsulfonylamino)-ethoxy)ethyl)ureido)ethyl)piperidin-1-yl)-2-(trifluoromethyl)pyrimidin-4-yl)azetidine-2-carboxamide] | 100 to 999 | 1.3 | 
O=C(O)CC[C@@H](NC(=O)CCCC1CCN(c2cc(N3CC[C@H]3C(=O)NCCc3ccc(C(F)(F)F)cc3)nc(C(F)(F)F)n2)CC1)C(=O)O [Compound 294, (R)-2-(4-(1-(2-(trifluoromethyl)-6-((S)-2-((4-(trifluoromethyl)-phenethyl)carbamoyl)azetidin-1-yl)pyrimidin-4-yl)piperidin-4-yl)butanamido)pentanedioic acid] | < 100 | 1.7 | 
N#Cc1ccc(CCNC(=O)[C@@H]2CCN2c2cc(N3CCC(CCNc4c(NCCS(=O)(=O)O)c(=O)c4=O)CC3)nc(C(F)(F)F)n2)cc1 [Compound 297, (S)-2-((2-((2-(1-(6-(2-((4-cyanophenethyl)carbamoyl)azetidin-1-yl)-2-(trifluoromethyl)pyrimidin-4-yl)piperidin-4-yl)ethyl)amino)-3,4-dioxocyclobut-1-en-1-yl)amino)ethanesulfonic acid] | 100 to 999 | 11 | 
N#Cc1ccc(CCNC(=O)[C@@H]2CCN2c2cc(N3CCC(CCNc4c(NCC(=O)O)c(=O)c4=O)CC3)nc(C(F)(F)F)n2)cc1 [Compound 302, (S)-2-((2-((2-(1-(6-(2-((4-cyanophenethyl)carbamoyl)azetidin-1-yl)-2-(trifluoromethyl)pyrimidin-4-yl)piperidin-4-yl)ethyl)amino)-3,4-dioxocyclobut-1-en-1-yl)amino)acetic acid] | < 100 | 3.7 | 
N#Cc1ccc(CCNC(=O)[C@@H]2CCCN(c3cc(N4CCC(CO)CC4)nc(C(F)(F)F)n3)C2)cc1 [Compound 308, (R)—N-(4-cyanophenethyl)-1-(6-(4-(hydroxymethyl)piperidin-1-yl)-2-(trifluoromethyl)pyrimidin-4-yl)piperidine-3-carboxamide] | 100 to 999 | 18 | 
O=C(O)CCCC1CCN(c2cc(N3CCC[C@@H](C(=O)NCCc4ccc(C(F)(F)F)cc4)C3)nc(C(F)(F)F)n2)CC1 [Compound 330, (R)-4-(1-(2-(trifluoromethyl)-6-(3-((4-(trifluoromethyl)phenethyl)carbamoyl)piperidin-1-yl)pyrimidin-4-yl)piperidin-4-yl)butanoic acid] | 100 to 999 | 20 | 
N#Cc1ccc(CCNC(=O)[C@@H]2CCCN(c3cc(N4CCC(CCNC(=O)NCCC(=O)O)CC4)nc(C(F)(F)F)n3)C2)cc1 [Compound 347, (R)-3-(3-(2-(1-(6-(3-((4-cyanophenethyl)carbamoyl)piperidin-1-yl)-2-(trifluoromethyl)pyrimidin-4-yl)piperidin-4-yl)ethyl)ureido)propanoic acid] | 100 to 999 | 30 | 
N#C/N=C(\NCCC(=O)O)NCCC1CCN(c2cc(N3CC[C@H]3C(=O)NCCc3ccc(C#N)cc3)nc(C(F)(F)F)n2)CC1 [Compound 351, (S,Z)-3-(2-cyano-3-(2-(1-(6-(2-((4-cyanophenethyl)carbamoyl)azetidin-1-yl)-2-(trifluoromethyl)pyrimidin-4-yl)piperidin-4-yl)ethyl)guanidino)propanoic acid] | < 100 | 301 | 
N#Cc1ccc(CCNC(=O)[C@@H]2CCN2c2cc(N3CCC(CCNC(=O)NCCOCCNC(=O)CS(=O)(=O)O)CC3)nc(C(F)(F)F)n2)cc1 [Compound 356, (S)-1-(1-(6-(2-((4-cyanophenethyl)carbamoyl)azetidin-1-yl)-2-(trifluoromethyl)pyrimidin-4-yl)piperidin-4-yl)-4,12-dioxo-8-oxa-3,5,11-triazatridecane-13-sulfonic acid] | 100 to 999 | 8.4 | 

Reference: patent US10654834B2 (Venenum Biodesign, LLC, priority 2016, dated 2020)
